Columns and labels:
Assay in all cases: Test C preemergence
galium = format: in vivo, Galium aparine; conditions: for Galium plant response rating: preemergence; for Plant response rating, Galium: Preemergence, 31 g ai/ha, scale 0 to 100, 0 no effect, 100 complete control
In short: (§1)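 Visual ratings on a 0–100 scale (100 = complete control) were made versus untreated controls after 13–15 greenhouse days. Chemicals in a surfactant-containing non-phytotoxic solvent were applied either preemergence to seeds in loam–sand soil or postemergence to 1- to 4-leaf plants 2–18 cm tall.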

giant foxtail = format: in vivo, Setaria faberii; conditions: for Foxtail, Giant plant response rating: preemergence; for Plant response rating, Foxtail, Giant: Preemergence, 31 g ai/ha, scale 0 to 100, 0 no effect, 100 complete control
In short: as §1

velvetleaf = format: in vivo, Abutilon theophrasti; conditions: for Velvetleaf plant response rating: preemergence; for Plant response rating, Velvetleaf: Preemergence, 31 g ai/ha, scale 0 to 100, 0 no effect, 100 complete control
In short: as §1

blackgrass = format: in vivo, Alopecurus myosuroides; conditions: for Blackgrass plant response rating: preemergence; for Plant response rating, Blackgrass: Preemergence, 31 g ai/ha, scale 0 to 100, 0 no effect, 100 complete control
In short: as §1

waterhemp = format: in vivo, Amaranthus rudis; conditions: for Waterhemp plant response rating: preemergence; for Plant response rating, Waterhemp: Preemergence, 31 g ai/ha, scale 0 to 100, 0 no effect, 100 complete control
In short: as §1

soybean = format: in vivo, Glycine max; conditions: for Soybean plant response rating: preemergence; for Plant response rating, Soybean: Preemergence, 31 g ai/ha, scale 0 to 100, 0 no effect, 100 complete control
In short: as §1

pigweed = format: in vivo, Amaranthus retroflexus; conditions: for Pigweed plant response rating: preemergence; for Plant response rating, Pigweed: Preemergence, 31 g ai/ha, scale 0 to 100, 0 no effect, 100 complete control
In short: as §1

ragweed = format: in vivo, Ambrosia elatior; conditions: for Ragweed plant response rating: preemergence; for Plant response rating, Ragweed: Preemergence, 31 g ai/ha, scale 0 to 100, 0 no effect, 100 complete control
In short: as §1

barnyardgrass = format: in vivo, Echinochloa crus-galli; conditions: for Barnyardgrass plant response rating: preemergence; for Plant response rating, Barnyardgrass: Preemergence, 31 g ai/ha, scale 0 to 100, 0 no effect, 100 complete control
In short: as §1

large (Lg) crabgrass = format: in vivo, Digitaria sanguinalis; conditions: for Crabgrass, Large plant response rating: preemergence; for Plant response rating, Crabgrass, Large: Preemergence, 31 g ai/ha, scale 0 to 100, 0 no effect, 100 complete control
In short: as §1

oilseed rape = format: in vivo, Brassica napus; conditions: for Oilseed Rape plant response rating: preemergence; for Plant response rating, Oilseed Rape: Preemergence, 31 g ai/ha, scale 0 to 100, 0 no effect, 100 complete control
In short: as §1

morningglory = format: in vivo, Ipomoea coccinea; conditions: for Morningglory plant response rating: preemergence; for Plant response rating, Morningglory: Preemergence, 31 g ai/ha, scale 0 to 100, 0 no effect, 100 complete control
In short: as §1

lambsquarters = format: in vivo, Chenopodium album; conditions: for Lambsquarters plant response rating: preemergence; for Plant response rating, Lambsquarters: Preemergence, 31 g ai/ha, scale 0 to 100, 0 no effect, 100 complete control
In short: as §1

[1] = 16 g ai/ha, scale 0 to 100 (0 no effect, 100 complete control)
[2] = 62 g ai/ha, scale 0 (no effect) to 100 (complete control)
[3] = 125 g ai/ha, scale 0 (no effect) to 100 (complete control)

## Fc1cnc(Oc2cccc(C(F)F)c2-n2cc(Cl)cn2)nc1 [Compound 94]
galium; [1]
  Galium plant response rating: 80
galium; [2]
  Galium plant response rating: 98
galium; [3]
  Galium plant response rating: 100
galium
  Plant response rating, Galium: 98
Giant foxtail; [1]
  Foxtail, Giant plant response rating: 5
Giant foxtail; [2]
  Foxtail, Giant plant response rating: 100
Giant foxtail; [3]
  Foxtail, Giant plant response rating: 100
Giant foxtail
  Plant response rating, Foxtail, Giant: 65
velvetleaf; [1]
  Velvetleaf plant response rating: 40
velvetleaf; [2]
  Velvetleaf plant response rating: 100
velvetleaf; [3]
  Velvetleaf plant response rating: 100
velvetleaf
  Plant response rating, Velvetleaf: 100
blackgrass; [1]
  Blackgrass plant response rating: 5
blackgrass; [2]
  Blackgrass plant response rating: 90
blackgrass; [3]
  Blackgrass plant response rating: 90
blackgrass
  Plant response rating, Blackgrass: 20
waterhemp; [1]
  Waterhemp plant response rating: 80
waterhemp; [2]
  Waterhemp plant response rating: 100
waterhemp; [3]
  Waterhemp plant response rating: 100
waterhemp
  Plant response rating, Waterhemp: 100
soybean; [1]
  Soybean plant response rating: 35
soybean; [2]
  Soybean plant response rating: 85
soybean; [3]
  Soybean plant response rating: 95
soybean
  Plant response rating, Soybean: 50
pigweed; [1]
  Pigweed plant response rating: 90
pigweed; [2]
  Pigweed plant response rating: 100
pigweed; [3]
  Pigweed plant response rating: 100
pigweed
  Plant response rating, Pigweed: 100
ragweed; [1]
  Ragweed plant response rating: 0
ragweed; [2]
  Ragweed plant response rating: 10
ragweed; [3]
  Ragweed plant response rating: 25
ragweed
  Plant response rating, Ragweed: 0
barnyardgrass; [1]
  Barnyardgrass plant response rating: 5
barnyardgrass; [2]
  Barnyardgrass plant response rating: 85
barnyardgrass; [3]
  Barnyardgrass plant response rating: 100
barnyardgrass
  Plant response rating, Barnyardgrass: 10
Large (Lg) crabgrass; [1]
  Crabgrass, Large plant response rating: 25
Large (Lg) crabgrass; [2]
  Crabgrass, Large plant response rating: 100
Large (Lg) crabgrass; [3]
  Crabgrass, Large plant response rating: 100
Large (Lg) crabgrass
  Plant response rating, Crabgrass, Large: 98
Oilseed rape; [1]
  Oilseed Rape plant response rating: 85
Oilseed rape; [2]
  Oilseed Rape plant response rating: 98
Oilseed rape; [3]
  Oilseed Rape plant response rating: 98
Oilseed rape
  Plant response rating, Oilseed Rape: 98
morningglory; [1]
  Morningglory plant response rating: 0
morningglory; [2]
  Morningglory plant response rating: 40
morningglory; [3]
  Morningglory plant response rating: 90
morningglory
  Plant response rating, Morningglory: 30
lambsquarters; [1]
  Lambsquarters plant response rating: 40
lambsquarters; [2]
  Lambsquarters plant response rating: 100
lambsquarters; [3]
  Lambsquarters plant response rating: 100
lambsquarters
  Plant response rating, Lambsquarters: 85

## N#Cc1cccc(Oc2ncc(Cl)cn2)c1-n1cc(OC(F)F)cn1 [Compound 97]
galium; [1]
  Galium plant response rating: 85
galium; [2]
  Galium plant response rating: 98
galium; [3]
  Galium plant response rating: 95
galium
  Plant response rating, Galium: 90
Giant foxtail; [1]
  Foxtail, Giant plant response rating: 60
Giant foxtail; [2]
  Foxtail, Giant plant response rating: 100
Giant foxtail; [3]
  Foxtail, Giant plant response rating: 100
Giant foxtail
  Plant response rating, Foxtail, Giant: 100
velvetleaf; [1]
  Velvetleaf plant response rating: 40
velvetleaf; [2]
  Velvetleaf plant response rating: 100
velvetleaf; [3]
  Velvetleaf plant response rating: 100
velvetleaf
  Plant response rating, Velvetleaf: 95
blackgrass; [1]
  Blackgrass plant response rating: 0
blackgrass; [2]
  Blackgrass plant response rating: 90
blackgrass; [3]
  Blackgrass plant response rating: 90
blackgrass
  Plant response rating, Blackgrass: 70
waterhemp; [1]
  Waterhemp plant response rating: 100
waterhemp; [2]
  Waterhemp plant response rating: 100
waterhemp; [3]
  Waterhemp plant response rating: 100
waterhemp
  Plant response rating, Waterhemp: 100
soybean; [1]
  Soybean plant response rating: 50
soybean; [2]
  Soybean plant response rating: 95
soybean; [3]
  Soybean plant response rating: 98
soybean
  Plant response rating, Soybean: 90
pigweed; [1]
  Pigweed plant response rating: 100
pigweed; [2]
  Pigweed plant response rating: 100
pigweed; [3]
  Pigweed plant response rating: 100
pigweed
  Plant response rating, Pigweed: 100
ragweed; [1]
  Ragweed plant response rating: 35
ragweed; [2]
  Ragweed plant response rating: 85
ragweed; [3]
  Ragweed plant response rating: 100
ragweed
  Plant response rating, Ragweed: 35
barnyardgrass; [1]
  Barnyardgrass plant response rating: 35
barnyardgrass; [2]
  Barnyardgrass plant response rating: 100
barnyardgrass; [3]
  Barnyardgrass plant response rating: 100
barnyardgrass
  Plant response rating, Barnyardgrass: 95
Large (Lg) crabgrass; [1]
  Crabgrass, Large plant response rating: 98
Large (Lg) crabgrass; [2]
  Crabgrass, Large plant response rating: 100
Large (Lg) crabgrass; [3]
  Crabgrass, Large plant response rating: 100
Large (Lg) crabgrass
  Plant response rating, Crabgrass, Large: 100
Oilseed rape; [1]
  Oilseed Rape plant response rating: 85
Oilseed rape; [2]
  Oilseed Rape plant response rating: 98
Oilseed rape; [3]
  Oilseed Rape plant response rating: 90
Oilseed rape
  Plant response rating, Oilseed Rape: 85
morningglory; [1]
  Morningglory plant response rating: 40
morningglory; [2]
  Morningglory plant response rating: 100
morningglory; [3]
  Morningglory plant response rating: 100
morningglory
  Plant response rating, Morningglory: 98
lambsquarters; [1]
  Lambsquarters plant response rating: 95
lambsquarters; [2]
  Lambsquarters plant response rating: 100
lambsquarters; [3]
  Lambsquarters plant response rating: 98
lambsquarters
  Plant response rating, Lambsquarters: 98

## Fc1cnc(Oc2cccc(C(F)F)c2-n2cc(C(F)(F)F)cn2)nc1 [Compound 164]
galium; [1]
  Galium plant response rating: 75
galium; [2]
  Galium plant response rating: 95
galium; [3]
  Galium plant response rating: 95
galium
  Plant response rating, Galium: 100
Giant foxtail; [1]
  Foxtail, Giant plant response rating: 40
Giant foxtail; [2]
  Foxtail, Giant plant response rating: 100
Giant foxtail; [3]
  Foxtail, Giant plant response rating: 100
Giant foxtail
  Plant response rating, Foxtail, Giant: 95
velvetleaf; [1]
  Velvetleaf plant response rating: 50
velvetleaf; [2]
  Velvetleaf plant response rating: 100
velvetleaf; [3]
  Velvetleaf plant response rating: 100
blackgrass; [1]
  Blackgrass plant response rating: 0
blackgrass; [2]
  Blackgrass plant response rating: 90
blackgrass; [3]
  Blackgrass plant response rating: 90
blackgrass
  Plant response rating, Blackgrass: 50
waterhemp; [1]
  Waterhemp plant response rating: 85
waterhemp; [2]
  Waterhemp plant response rating: 100
waterhemp; [3]
  Waterhemp plant response rating: 100
soybean; [1]
  Soybean plant response rating: 0
soybean; [2]
  Soybean plant response rating: 65
soybean; [3]
  Soybean plant response rating: 95
pigweed; [1]
  Pigweed plant response rating: 98
pigweed; [2]
  Pigweed plant response rating: 100
pigweed; [3]
  Pigweed plant response rating: 98
ragweed; [1]
  Ragweed plant response rating: 0
ragweed; [2]
  Ragweed plant response rating: 75
ragweed; [3]
  Ragweed plant response rating: 85
barnyardgrass; [1]
  Barnyardgrass plant response rating: 15
barnyardgrass; [2]
  Barnyardgrass plant response rating: 98
barnyardgrass; [3]
  Barnyardgrass plant response rating: 100
barnyardgrass
  Plant response rating, Barnyardgrass: 70
Large (Lg) crabgrass; [1]
  Crabgrass, Large plant response rating: 75
Large (Lg) crabgrass; [2]
  Crabgrass, Large plant response rating: 100
Large (Lg) crabgrass; [3]
  Crabgrass, Large plant response rating: 100
Large (Lg) crabgrass
  Plant response rating, Crabgrass, Large: 85
Oilseed rape; [1]
  Oilseed Rape plant response rating: 70
Oilseed rape; [2]
  Oilseed Rape plant response rating: 100
Oilseed rape; [3]
  Oilseed Rape plant response rating: 100
morningglory; [1]
  Morningglory plant response rating: 10
morningglory; [2]
  Morningglory plant response rating: 85
morningglory; [3]
  Morningglory plant response rating: 100
lambsquarters; [1]
  Lambsquarters plant response rating: 70
lambsquarters; [2]
  Lambsquarters plant response rating: 100
lambsquarters; [3]
  Lambsquarters plant response rating: 98

## FC(F)c1cccc(Oc2ncc(Cl)cn2)c1-n1cc(C(F)(F)F)cn1 [Compound 170]
galium; [1]
  Galium plant response rating: 95
galium; [2]
  Galium plant response rating: 100
galium; [3]
  Galium plant response rating: 100
galium
  Plant response rating, Galium: 98
Giant foxtail; [1]
  Foxtail, Giant plant response rating: 80
Giant foxtail; [2]
  Foxtail, Giant plant response rating: 98
Giant foxtail; [3]
  Foxtail, Giant plant response rating: 100
Giant foxtail
  Plant response rating, Foxtail, Giant: 85
velvetleaf; [1]
  Velvetleaf plant response rating: 25
velvetleaf; [2]
  Velvetleaf plant response rating: 80
velvetleaf; [3]
  Velvetleaf plant response rating: 100
blackgrass; [1]
  Blackgrass plant response rating: 0
blackgrass; [2]
  Blackgrass plant response rating: 90
blackgrass; [3]
  Blackgrass plant response rating: 90
blackgrass
  Plant response rating, Blackgrass: 80
waterhemp; [1]
  Waterhemp plant response rating: 100
waterhemp; [2]
  Waterhemp plant response rating: 100
waterhemp; [3]
  Waterhemp plant response rating: 100
soybean; [1]
  Soybean plant response rating: 5
soybean; [2]
  Soybean plant response rating: 45
soybean; [3]
  Soybean plant response rating: 55
pigweed; [1]
  Pigweed plant response rating: 100
pigweed; [2]
  Pigweed plant response rating: 100
pigweed; [3]
  Pigweed plant response rating: 100
ragweed; [1]
  Ragweed plant response rating: 85
ragweed; [2]
  Ragweed plant response rating: 55
ragweed; [3]
  Ragweed plant response rating: 65
barnyardgrass; [1]
  Barnyardgrass plant response rating: 10
barnyardgrass; [2]
  Barnyardgrass plant response rating: 100
barnyardgrass; [3]
  Barnyardgrass plant response rating: 100
barnyardgrass
  Plant response rating, Barnyardgrass: 55
Large (Lg) crabgrass; [1]
  Crabgrass, Large plant response rating: 25
Large (Lg) crabgrass; [2]
  Crabgrass, Large plant response rating: 100
Large (Lg) crabgrass; [3]
  Crabgrass, Large plant response rating: 100
Large (Lg) crabgrass
  Plant response rating, Crabgrass, Large: 95
Oilseed rape; [1]
  Oilseed Rape plant response rating: 70
Oilseed rape; [2]
  Oilseed Rape plant response rating: 98
Oilseed rape; [3]
  Oilseed Rape plant response rating: 95
morningglory; [1]
  Morningglory plant response rating: 0
morningglory; [2]
  Morningglory plant response rating: 40
morningglory; [3]
  Morningglory plant response rating: 100
lambsquarters; [1]
  Lambsquarters plant response rating: 90
lambsquarters; [2]
  Lambsquarters plant response rating: 100
lambsquarters; [3]
  Lambsquarters plant response rating: 100

Source: patent US9695155B2, “Herbicidal substituted pyrimidinyloxy benzene compounds” (E. I. DU PONT DE NEMOURS AND COMPANY, priority 2013, dated 2017)
